Values of other authors in US6906044B2, “Regeneration of articular cartilage damaged by grade I and II osteoarthritis by means of the intraarticular application of a mixture of sodium hyaluronate and chondroitin sulfate in a gel vehicle” (Alcon, Inc., priority 2001, dated 2005).

Tested on: injured knees of the horses
Conditions: observed by veterinarians at racetracks

sodium hyaluronate
reaction in injured knees: beneficial reaction
